Test results published in patent publication US9980943B2, “Methods of treating muscular dystrophy” (BOARD OF REGENTS OF THE NEVADA SYSTEM OF HIGHER EDUCATION, …, priority 2013, dated 2018).

What was measured:
Format in all cases: cell-based, mouse
[1] = test system: β-galactosidase in CMV-LacZ C2C12 myoblasts; assay: CMV-LacZ secondary screen in C2C12 myoblasts (β-Gal stabilizing assay); settings: CMV-LacZ C2C12 myoblasts
Method in brief: (§1)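 β-Gal level was the read-out, measured in a clonal C2C12 line expressing LacZ from a CMV promoter. Dose-response curves used six concentrations, 0.5 μM up to 40 μM, with duplicate points.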

[2] = test system: α7 integrin (LacZ reporter in α7βgal+/− myoblasts); assay: Myoblast α7+/LacZ integrin FDG assay (Burkin assay in myoblasts, 96-well); settings: α7+/LacZ myoblasts, 96-well
[3] = test system: β-galactosidase in CMV-LacZ C2C12 myotubes; assay: CMV-LacZ secondary screen in C2C12 myotubes (β-Gal stabilizing assay); settings: C2C12 CMV-LacZ myotubes, fold relative to DMSO
Method in brief: as §1

[4] = test system: α7 integrin (LacZ reporter in α7+/LacZ myotubes); assay: Myotube α7 integrin FDG assay (Burkin assay in myotubes, 96-well); settings: myotubes

Compound | CMV-LACZ in Myoblasts (β-galactosidase activity relative to DMSO) ([1]; 0.5 uM) | CMV-LACZ in Myoblasts (β-galactosidase activity relative to DMSO) ([1]; 1 uM) | CMV-LACZ in Myoblasts (β-galactosidase activity relative to DMSO) ([1]; 5 uM) | CMV-LACZ in Myoblasts (β-galactosidase activity relative to DMSO) ([1]; 10 uM) | CMV-LACZ in Myoblasts (β-galactosidase activity relative to DMSO) ([1]; 20 uM) | CMV-LACZ in Myoblasts (β-galactosidase activity relative to DMSO) ([1]; 40 uM) | Burkin Assay in Myoblasts, signal relative to DMSO ([2]; 0.5 uM) | Burkin Assay in Myoblasts, signal relative to DMSO ([2]; 1 uM) | Burkin Assay in Myoblasts, signal relative to DMSO ([2]; 5 uM) | Burkin Assay in Myoblasts, signal relative to DMSO ([2]; 10 uM) | Burkin Assay in Myoblasts, signal relative to DMSO ([2]; 20 uM) | Burkin Assay in Myoblasts, signal relative to DMSO ([2]; 40 uM) | CMV-LACZ in Myotubes, signal relative to DMSO ([3]; 0.5 uM) | CMV-LACZ in Myotubes, signal relative to DMSO ([3]; 1 uM) | CMV-LACZ in Myotubes, signal relative to DMSO ([3]; 5 uM) | CMV-LACZ in Myotubes, signal relative to DMSO ([3]; 10 uM) | CMV-LACZ in Myotubes, signal relative to DMSO ([3]; 20 uM) | CMV-LACZ in Myotubes, signal relative to DMSO ([3]; 40 uM) | Burkin Assay in Myotubes, α7 integrin LacZ reporter signal relative to DMSO ([4]; 0.5 uM) | Burkin Assay in Myotubes, α7 integrin LacZ reporter signal relative to DMSO ([4]; 1 uM) | also measured
CCN(C(=O)c1ccc(S(=O)(=O)N(C)C)cc1)C(C)C(=O)Nc1ccc(C)cc1 (stereo not drawn) [MLS001170856-01] | 0.7337 | 0.9857 | 0.7938 | 1.0004 | 0.8881 | 0.8389 | 0.95 | 0.8651 | 0.9744 | 1.244 | 0.9217 | 0.7133 | 1.1095 | 0.9105 | 1.0074 | 1.0562 | 1.1518 | 0.8753 | 0.8296 | 0.7436 | Burkin Assay in Myotubes, α7 integrin LacZ reporter signal relative to DMSO ([4]; 5 uM): 0.91; Burkin Assay in Myotubes, α7 integrin LacZ reporter signal relative to DMSO ([4]; 10 uM): 1.064; Burkin Assay in Myotubes, α7 integrin LacZ reporter signal relative to DMSO ([4]; 20 uM): 0.7763; Burkin Assay in Myotubes, α7 integrin LacZ reporter signal relative to DMSO ([4]; 40 uM): 1.029
Cc1ccsc1CN(C)CC(=O)Nc1ccc([N+](=O)[O-])cc1Cl [MLS001172822-01] | 0.9304 | 1.0617 | 1.1375 | 1.0904 | 0.9285 | 1.2767 | 1.233 | 1.351 | 0.9662 | 0.9014 | 0.987 | 0.9597 | 1.2590 | 1.0514 | 1.2505 | 1.1819 | 1.1768 | 0.6358 | 0.9496 | 0.9315 | Burkin Assay in Myotubes, α7 integrin LacZ reporter signal relative to DMSO ([4]; 5 uM): 0.8513; Burkin Assay in Myotubes, α7 integrin LacZ reporter signal relative to DMSO ([4]; 10 uM): 0.861; Burkin Assay in Myotubes, α7 integrin LacZ reporter signal relative to DMSO ([4]; 20 uM): 0.8466; Burkin Assay in Myotubes, α7 integrin LacZ reporter signal relative to DMSO ([4]; 40 uM): 0.7858
CCCn1c(-c2cc(OC)c(OC)c(OC)c2)nc2c1c(=O)[nH]c(=O)n2Cc1ccccc1 [MLS001174740-01] | 1.2750 | 0.9721 | 1.0046 | 0.9490 | 0.4293 | 0.4578 | 1.221 | 1.193 | 0.8512 | 1.181 | 0.9658 | 0.5414 | 0.8533 | 0.9267 | 0.9101 | 1.0520 | 1.0568 | 0.8863 | 0.9078 | 0.8687 | Burkin Assay in Myotubes, α7 integrin LacZ reporter signal relative to DMSO ([4]; 5 uM): 0.8574; Burkin Assay in Myotubes, α7 integrin LacZ reporter signal relative to DMSO ([4]; 10 uM): 0.9017; Burkin Assay in Myotubes, α7 integrin LacZ reporter signal relative to DMSO ([4]; 20 uM): 0.7823; Burkin Assay in Myotubes, α7 integrin LacZ reporter signal relative to DMSO ([4]; 40 uM): 0.7064
O=C(N[C@@H](Cc1c[nH]c2ccccc12)C(=O)O)C1CCN(S(=O)(=O)c2cccs2)CC1 [MLS001175021-01] | 1.1772 | 1.0729 | 0.9282 | 0.9395 | 1.1070 | 1.0907 | 0.92 | 0.9803 | 0.8806 | 0.906 | 0.9747 | 0.9575 | 1.0611 | 0.9621 | 0.9049 | 0.7979 | 1.1378 | 0.9733 | 1.061 | 1.0167 | Burkin Assay in Myotubes, α7 integrin LacZ reporter signal relative to DMSO ([4]; 5 uM): 1.051; Burkin Assay in Myotubes, α7 integrin LacZ reporter signal relative to DMSO ([4]; 10 uM): 0.9913; Burkin Assay in Myotubes, α7 integrin LacZ reporter signal relative to DMSO ([4]; 20 uM): 0.9799; Burkin Assay in Myotubes, α7 integrin LacZ reporter signal relative to DMSO ([4]; 40 uM): 0.8788
Cc1cccc(C)c1NCC(=O)N1CCN(Cc2ccccc2)CC1.Cl [MLS001176153-01] | 1.2729 | 1.4588 | 0.8976 | 0.9140 | 0.9322 | 1.0763 | 1.06 | 1.045 | 0.9185 | 0.8767 | 1.145 | 1.12 | 0.8316 | 0.9832 | 0.7944 | 0.9388 | 1.0256 | 1.0878 | 1.007 | 1.027 | Burkin Assay in Myotubes, α7 integrin LacZ reporter signal relative to DMSO ([4]; 5 uM): 0.9538; Burkin Assay in Myotubes, α7 integrin LacZ reporter signal relative to DMSO ([4]; 10 uM): 1.106; Burkin Assay in Myotubes, α7 integrin LacZ reporter signal relative to DMSO ([4]; 20 uM): 0.9238; Burkin Assay in Myotubes, α7 integrin LacZ reporter signal relative to DMSO ([4]; 40 uM): 0.9818
Cl.O=C1C2CCCN2C(=O)N1CCCN1CCN(c2cccc(Br)c2)CC1 (stereo not drawn) [MLS001180929-01] | 0.8571 | 0.9288 | 0.8251 | 0.8753 | 0.9811 | 0.6163 | 1.077 | 1.0555 | 1.05 | 1.05 | 1.102 | 1.1941 | 0.8848 | 0.7876 | 1.0533 | 1.0084 | 1.1347 | 1.0274 | 0.899 | 0.9256 | Burkin Assay in Myotubes, α7 integrin LacZ reporter signal relative to DMSO ([4]; 5 uM): 0.9643; Burkin Assay in Myotubes, α7 integrin LacZ reporter signal relative to DMSO ([4]; 10 uM): 1.03; Burkin Assay in Myotubes, α7 integrin LacZ reporter signal relative to DMSO ([4]; 20 uM): 0.8659; Burkin Assay in Myotubes, α7 integrin LacZ reporter signal relative to DMSO ([4]; 40 uM): 1.135
